Experimental data from article PMC3951875 (Bioorganic & medicinal chemistry letters, 2014).

Legend:
hERG channel = hERG channel (Homo sapiens, UniProt Q12809); test: hERG channel inhibition; type: biochemical; details: @ 25 μM; < 5% at all tested concentrations (0.008-25.0 μM)
[1] = Microsomal stability, mouse; type: in vitro ADME; details: mouse microsomes
Exposure = type: in vivo; details: for CO: IV, dose 0.03 mg, av. weight 27 g; for AUC / Cmax / Tmax / half-life: in vivo, 0.03 mg
[2] = Biological stability in mouse plasma; type: in vitro ADME
[3] = Microsomal stability, human; type: in vitro ADME; details: human microsomes
[4] = Microsomal stability, rat; type: in vitro ADME; details: rat microsomes
Caco2 = test: PAMPA and Caco2 permeability analyses; type: in vitro ADME; details: data not shown
αIIbβ3 receptor [5] = molecular target: T1, αIIbβ3 receptor (Homo sapiens, UniProt P05106+P08514); test: β3 conformation by binding of a conformation-specific monoclonal antibody
T1 sequence (P08514 32-887 limits assumed): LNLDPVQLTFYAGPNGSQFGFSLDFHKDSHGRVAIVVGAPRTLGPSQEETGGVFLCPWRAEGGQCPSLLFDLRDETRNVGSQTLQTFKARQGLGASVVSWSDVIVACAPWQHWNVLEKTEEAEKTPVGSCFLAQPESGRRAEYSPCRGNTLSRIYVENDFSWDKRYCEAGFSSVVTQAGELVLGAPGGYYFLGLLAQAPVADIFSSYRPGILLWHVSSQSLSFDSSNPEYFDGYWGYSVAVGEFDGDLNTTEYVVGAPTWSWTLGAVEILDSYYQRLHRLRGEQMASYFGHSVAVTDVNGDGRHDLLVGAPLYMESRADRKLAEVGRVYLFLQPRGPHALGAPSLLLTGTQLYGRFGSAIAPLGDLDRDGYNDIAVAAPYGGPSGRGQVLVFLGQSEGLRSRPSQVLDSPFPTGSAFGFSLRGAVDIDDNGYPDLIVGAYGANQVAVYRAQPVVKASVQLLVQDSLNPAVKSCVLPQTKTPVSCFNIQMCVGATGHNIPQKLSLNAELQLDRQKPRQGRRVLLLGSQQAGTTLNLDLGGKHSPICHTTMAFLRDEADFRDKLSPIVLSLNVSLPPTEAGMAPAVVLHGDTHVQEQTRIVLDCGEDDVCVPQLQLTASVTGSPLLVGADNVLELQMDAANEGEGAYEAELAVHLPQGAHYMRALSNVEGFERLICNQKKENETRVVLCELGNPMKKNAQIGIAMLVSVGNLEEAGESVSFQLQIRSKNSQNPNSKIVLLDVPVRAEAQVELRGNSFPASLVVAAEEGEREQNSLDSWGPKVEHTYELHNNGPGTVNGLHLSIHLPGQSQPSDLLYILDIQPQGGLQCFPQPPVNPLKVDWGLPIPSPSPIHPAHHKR
T1 sequence (P08514 891-1039 partner limits assumed): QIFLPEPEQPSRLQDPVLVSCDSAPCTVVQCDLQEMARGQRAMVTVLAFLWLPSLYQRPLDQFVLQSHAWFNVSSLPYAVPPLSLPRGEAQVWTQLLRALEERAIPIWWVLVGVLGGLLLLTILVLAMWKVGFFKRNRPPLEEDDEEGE
T1 sequence (P05106 27-788): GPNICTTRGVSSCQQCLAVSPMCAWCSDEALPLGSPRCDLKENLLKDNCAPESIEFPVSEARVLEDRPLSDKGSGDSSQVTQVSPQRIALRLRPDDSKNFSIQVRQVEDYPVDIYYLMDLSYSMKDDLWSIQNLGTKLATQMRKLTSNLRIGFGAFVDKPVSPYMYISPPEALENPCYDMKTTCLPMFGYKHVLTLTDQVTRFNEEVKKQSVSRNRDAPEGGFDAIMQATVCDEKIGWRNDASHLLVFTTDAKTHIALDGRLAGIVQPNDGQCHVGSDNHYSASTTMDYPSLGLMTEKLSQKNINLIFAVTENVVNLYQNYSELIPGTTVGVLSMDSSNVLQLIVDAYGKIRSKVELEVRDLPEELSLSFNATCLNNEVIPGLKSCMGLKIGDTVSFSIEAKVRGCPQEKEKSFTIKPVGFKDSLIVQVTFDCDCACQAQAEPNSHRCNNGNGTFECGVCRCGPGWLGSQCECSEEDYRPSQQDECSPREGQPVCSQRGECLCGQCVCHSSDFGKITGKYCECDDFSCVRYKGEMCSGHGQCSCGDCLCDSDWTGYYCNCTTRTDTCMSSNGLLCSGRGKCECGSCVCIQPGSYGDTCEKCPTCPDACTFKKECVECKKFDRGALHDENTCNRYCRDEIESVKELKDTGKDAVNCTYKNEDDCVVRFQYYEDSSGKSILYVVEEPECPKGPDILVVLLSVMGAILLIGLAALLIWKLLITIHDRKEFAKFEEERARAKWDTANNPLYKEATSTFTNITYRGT

αVβ3 receptor = αVβ3 receptor (Homo sapiens, UniProt P05106+P06756); test: Activity versus the αVβ3 receptor; details: manuscript in preparation
Sequence of αVβ3 receptor (P06756 31-889 limits assumed): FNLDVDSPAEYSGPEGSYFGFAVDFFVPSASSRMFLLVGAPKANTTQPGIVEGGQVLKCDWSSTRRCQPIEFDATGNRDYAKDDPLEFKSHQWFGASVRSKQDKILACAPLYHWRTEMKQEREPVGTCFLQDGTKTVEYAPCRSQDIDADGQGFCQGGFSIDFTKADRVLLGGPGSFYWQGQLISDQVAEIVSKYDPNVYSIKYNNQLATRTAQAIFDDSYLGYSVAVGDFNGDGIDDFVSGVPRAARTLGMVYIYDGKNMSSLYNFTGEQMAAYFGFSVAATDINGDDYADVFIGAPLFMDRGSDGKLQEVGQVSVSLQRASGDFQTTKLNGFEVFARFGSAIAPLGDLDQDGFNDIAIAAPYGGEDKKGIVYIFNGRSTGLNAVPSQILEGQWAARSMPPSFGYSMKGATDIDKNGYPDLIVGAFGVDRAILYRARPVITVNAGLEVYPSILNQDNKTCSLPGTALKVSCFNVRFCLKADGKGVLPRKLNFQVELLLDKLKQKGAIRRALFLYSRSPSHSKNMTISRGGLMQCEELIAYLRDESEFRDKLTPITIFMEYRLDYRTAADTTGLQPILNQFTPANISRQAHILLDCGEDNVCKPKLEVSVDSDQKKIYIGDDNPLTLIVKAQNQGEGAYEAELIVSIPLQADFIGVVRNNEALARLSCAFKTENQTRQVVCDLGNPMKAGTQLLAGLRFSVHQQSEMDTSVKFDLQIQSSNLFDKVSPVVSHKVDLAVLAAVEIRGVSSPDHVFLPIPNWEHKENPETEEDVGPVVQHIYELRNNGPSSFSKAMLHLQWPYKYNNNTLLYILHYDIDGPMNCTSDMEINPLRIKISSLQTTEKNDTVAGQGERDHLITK
Sequence of αVβ3 receptor (P06756 891-1048 partner limits assumed): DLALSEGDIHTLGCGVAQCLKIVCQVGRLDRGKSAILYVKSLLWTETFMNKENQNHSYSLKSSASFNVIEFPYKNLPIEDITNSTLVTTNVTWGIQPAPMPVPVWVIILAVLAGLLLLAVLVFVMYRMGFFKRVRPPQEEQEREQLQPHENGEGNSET
Sequence of αVβ3 receptor (P05106 27-788): as the sequence (P05106 27-788) above

Long-term solubilization = type: physicochemical
phospholipidosis = test: Drug-induced phospholipidosis; type: cell-based; details: data not shown
αIIbβ3 receptor [6] = molecular target: T1, αIIbβ3 receptor; test: Priming of the receptor for fibrinogen binding; details: manuscript in preparation
αIIbβ3 receptor [7] = molecular target: T1, αIIbβ3 receptor; test: Platelet aggregation; type: cell-based
[8] = Chemical stability as a solution; type: physicochemical; details: both DMSO-based and aqueous

Sequence of hERG channel (Q12809 whole entry): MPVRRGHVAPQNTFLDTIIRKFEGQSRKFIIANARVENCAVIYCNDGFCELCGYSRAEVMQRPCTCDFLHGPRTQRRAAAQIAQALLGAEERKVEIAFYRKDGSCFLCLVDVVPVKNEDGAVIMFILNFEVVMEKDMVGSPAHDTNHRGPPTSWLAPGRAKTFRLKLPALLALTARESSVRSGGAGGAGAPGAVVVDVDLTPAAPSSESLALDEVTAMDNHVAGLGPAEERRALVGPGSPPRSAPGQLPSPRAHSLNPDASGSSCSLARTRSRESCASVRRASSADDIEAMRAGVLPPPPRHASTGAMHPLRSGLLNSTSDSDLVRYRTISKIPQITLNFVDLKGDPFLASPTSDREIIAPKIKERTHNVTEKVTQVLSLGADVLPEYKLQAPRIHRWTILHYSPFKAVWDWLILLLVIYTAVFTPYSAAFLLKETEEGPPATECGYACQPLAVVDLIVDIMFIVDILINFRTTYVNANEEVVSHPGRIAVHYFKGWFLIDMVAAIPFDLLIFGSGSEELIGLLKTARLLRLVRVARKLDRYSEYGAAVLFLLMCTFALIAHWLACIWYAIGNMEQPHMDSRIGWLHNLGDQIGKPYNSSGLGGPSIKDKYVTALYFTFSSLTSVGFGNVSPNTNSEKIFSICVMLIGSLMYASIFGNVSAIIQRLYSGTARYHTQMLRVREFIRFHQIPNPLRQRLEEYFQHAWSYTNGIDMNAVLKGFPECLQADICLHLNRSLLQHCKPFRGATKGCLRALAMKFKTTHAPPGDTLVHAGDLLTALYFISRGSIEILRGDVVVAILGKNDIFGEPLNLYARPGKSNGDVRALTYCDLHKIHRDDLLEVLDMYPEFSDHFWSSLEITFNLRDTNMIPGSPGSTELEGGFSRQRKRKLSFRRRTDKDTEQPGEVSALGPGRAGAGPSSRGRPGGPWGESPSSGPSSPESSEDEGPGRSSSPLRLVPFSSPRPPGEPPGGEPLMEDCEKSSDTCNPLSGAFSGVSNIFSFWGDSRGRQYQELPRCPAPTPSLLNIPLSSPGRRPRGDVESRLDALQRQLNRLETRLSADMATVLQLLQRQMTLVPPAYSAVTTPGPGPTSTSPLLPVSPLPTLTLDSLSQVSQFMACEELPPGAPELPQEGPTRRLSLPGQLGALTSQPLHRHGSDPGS

| CO (Exposure) | AUC (Exposure; ip) | Cmax (Exposure; ip) | Tmax (Exposure; ip) | AUC (Exposure; iv) | half-life (Exposure; iv) | Biological Stability ([2]; 15 min.) | Biological Stability ([2]; 60 min.) | Biological Stability ([2]; 120 min.) | SMILES | hERG Inhibition (hERG channel) | PAMPA and Caco2 permeability analyses (Caco2) | also measured |
| --- | --- | --- | --- | --- | --- | --- | --- | --- | --- | --- | --- | --- |
| 1.354 µg/mL | 0.045 µg·h/mL | 0.222 µg/mL | 4.8 min | 0.123 µg·h/mL | 4.2 min | 97.5 (15 min.) | 93.3 (60 min.) | 84.5 (120 min.) | NCC(=O)Nc1cccc(-c2nn3c(=O)cc(N4CCNCC4)nc3s2)c1 [compound 2] | < 5% @ 25 μM | unlikely that either agent possesses high oral bioavailability | t1/2 [1]: > det. limit (mouse); t1/2 [3]: > det. limit (human); t1/2 [4]: > det. limit (rat) |
| 1.145 µg/mL | 0.087 µg·h/mL | 0.405 µg/mL | 4.8 min | 0.137 µg·h/mL | 4.2 min | 100 (15 min.) | 99.5 (60 min.) | 91.7 (120 min.) | NCC(=O)Nc1cncc(-c2nn3c(=O)cc(N4CCNCC4)nc3s2)c1 [compound 13] | < 5% @ 25 μM | unlikely that either agent possesses high oral bioavailability | change of β3 conformation (αIIbβ3 receptor [5]): nor changes the β3 conformation; activity versus the αVβ3 receptor (αVβ3 receptor): does not possess any activity; solubility (Long-term solubilization): ≥ 60 mg/mL; induction of phospholipidosis (phospholipidosis): No appreciable induction of phospholipidosis; priming of the receptor for fibrinogen binding (αIIbβ3 receptor [6]): neither primes the receptor for fibrinogen binding |
|  |  |  |  |  |  |  |  |  | CCc1nn2c(=O)cc(N3CCNCC3)nc2s1 [compound 1] |  |  | IC50 (αIIbβ3 receptor [7]): 4 to 10 µM |
|  |  |  |  |  |  |  |  |  | NCC(=O)Nc1cc(-c2nn3c(=O)cc(N4CCNCC4)nc3s2)ccn1 [compound 14] |  |  | chemical stability as a solution [8]: poor chemical stability |
